The source of these data is paper PMC4649711, “In1-ghrelin splicing variant is overexpressed in pituitary adenomas and increases their aggressive features” (Scientific Reports, 2015).

This assay relates to AtT-20 cell line. Put plainly: ACTH secretion from AtT-20 cell line. The class given is cell-based, mouse. To be noted: 4 h, 3–5 independent experiments. As for the experimental part:
The mouse corticotroph pituitary derived cell line AtT-20/D16v-F2 (ATCC® CRL-1795) was cultured and maintained in Dulbecco's Modified Eagle's Medium (DMEM) complemented with 10% FBS, 100 U/ml penicillin/streptomycin, 0.024 M of 2-(4(2-hydroxyethyl)-1-piperazine)-ethane sulfonic acid (HEPES), and maintained at 37°C and 5% CO2, under sterile conditions. CHO-K1 cell line(ATCC® CCL-61) expressing recombinant human GHSR1a (GenBank accession number U60179) or GHSR1b (GenBank accession number U60181) were cultured and maintained in Ham's F12 media (Corning #10-080-CV) supplemented with 10% FBS, 2 mM L-Glutamine and 0.4 mg/mL Geneticin.
To examine the effects of ghrelin system components (4- and/or 24 h-incubation) on pituitary hormone release from primary pituitary adenoma and/or AtT-20 cell line, 100,000–200,000 cell/well were used. As previously reported, hormone concentrations were measured in the culture media derived from human samples according to the pituitary adenoma type using commercial ELISAs [growth hormone, GH; adrenocorticotropin, ACTH; and prolactin, PRL (reference numbers: EIA-3552, EIA-3647 and EIA-1291, respectively; DRG, Mountainside, NJ, USA)] following the manufacturer's instructions. All the information regarding specificity, detectability, and reproducibility for each of the assays can be accessed at the web site of the company.

Take `CCCCCCCC(=O)OC[C@H](NC(=O)[C@H](CO)NC(=O)CN)C(=O)N[C@@H](Cc1ccccc1)C(=O)N[C@@H](CC(C)C)C(=O)N[C@@H](CO)C(=O)N1CCC[C@H]1C(=O)N[C@@H](CCC(=O)O)C(=O)N[C@@H](Cc1c[nH]cn1)C(=O)N[C@@H](CCC(N)=O)C(=O)N[C@@H](CCCNC(=N)N)C(=O)N[C@H](C(=O)N[C@@H](CCC(N)=O)C(=O)N[C@@H](CCC(N)=O)C(=O)N[C@@H](CCCNC(=N)N)C(=O)N[C@@H](CCCCN)C(=O)N[C@@H](CCC(=O)O)C(=O)N[C@@H](CO)C(=O)N[C@@H](CCCCN)C(=O)N[C@@H](CCCCN)C(=O)N1CCC[C@H]1C(=O)N1CCC[C@H]1C(=O)N[C@@H](C)C(=O)N[C@@H](CCCCN)C(=O)N[C@@H](CC(C)C)C(=O)N[C@@H](CCC(N)=O)C(=O)N1CCC[C@H]1C(=O)N[C@@H](CCCNC(=N)N)C(=O)O)C(C)C` [AG]: the “basal ACTH release” value is reported as “did not significantly alter basal ACTH release”.
